Data on seven compounds can be found in ChEMBL document CHEMBL1125278, “Novel cerebroprotective agents with central nervous system stimulating activity. 2. Synthesis and pharmacology of the 1-(acylamino)-7-hydroxyindan derivatives” (1991).

Values joined by “and” are separate entries in the source; they are usually repeats but may differ in a detail not shown here. Identical values can stand only once.

Holding throughout (assay type): functional
In assay [1] the test system is Mus musculus. The assay can be described thus: Time of recovery of spontaneous movement (SMT) in seconds was measured after administration of 10 mg/kg orally in mice for the promotional effect on recovery from coma. To be noted: route oral.
For assay [2], the system named is Mus musculus. Put plainly: Time of recovery of spontaneous movement (SMT) in seconds was measured after administration of 1 mg/kg orally in mice for the promotional effect on recovery from coma. To be noted: route oral.
Assay [3] relates to Mus musculus. Put plainly: Spontaneous movement (SMT) in seconds, was measured after oral administration of 30 mg/kg in mice to test for promoting effects on recovery from coma.
Assay [4] deals with Mus musculus. Put plainly: Time of recovery of righting reflux (RRT) in seconds was measured after oral administration of 3 mg/kg in mice for the promotional effect on recovery from coma.
Assay [5] has as its system Mus musculus. Put plainly: Time of recovery of righting reflux (RRT) in seconds was measured after oral administration of 30 mg/kg in mice for the promotional effect on recovery from coma.
Assay [6] deals with Mus musculus. The assay can be described thus: Time of recovery of righting reflux (RRT) in seconds was measured after oral administration of 10 mg/kg in mice for the promotional effect on recovery from coma.
Assay [7] relates to Mus musculus. The assay can be described thus: Time of recovery of righting reflux (RRT) in seconds was measured after oral administration of 1 mg/kg in mice for the promotional effect on recovery from coma.
Assay [8] deals with Mus musculus. The assay can be described thus: Time of recovery of spontaneous movement (SMT) in seconds was measured after administration of 3 mg/kg orally in mice for the promotional effect on recovery from coma. Conditions: route oral.
Assay [9] deals with Mus musculus. Put plainly: Antihypoxic effect by the survival time (SVT) in mice at a dose of 3 mg/kg administered intraperitoneally. Conditions: route intraperitoneal.
Assay [10] relates to Mus musculus. The assay can be described thus: Compound was tested for the anesthetic effect and the sleeping time (ST) was recorded at a dose of 3 mg/kg administered subcutaneously. Conditions: route subcutaneous.
Assay [11] relates to Mus musculus. Put plainly: Antihypoxic effect by the ratio of survival time (SVT) of test mice to that of control group at a dose of 10 mg/kg administered intraperitoneally. Conditions: route intraperitoneal.
Assay [12] deals with Mus musculus. Put plainly: Antihypoxic effect tested by the ratio of survival time (SVT) of test mice to that of control group, dosed intraperitoneally at 30 mg/kg. Conditions: route intraperitoneal.
Assay [13] has as its system Mus musculus. The assay can be described thus: Antihypoxic effect tested by the ratio of survival time (SVT) of test mice to that of control group, dosed orally 30 mg/kg. Conditions: route oral.
For assay [14], the system named is Mus musculus. Put plainly: Antihypoxic effect by the ratio of survival time (SVT) of test mice to that of control group at a dose of 30 mg/kg administered subcutaneously. Conditions: route subcutaneous.
Assay [15] relates to Mus musculus. Put plainly: Time of recovery of spontaneous movement (SMT) in seconds was measured after administration of 10 mg/kg intraperitoneally in mice for the promotional effect on recovery from coma. To be noted: route intraperitoneal.
Assay [16] has as its system Mus musculus. Put plainly: Time of recovery of righting reflux (RRT) in seconds was measured after administration of 100 mg/kg intraperitoneally in mice for the promotional effect on recovery from coma. To be noted: route intraperitoneal.
For assay [17], the system named is Mus musculus. Put plainly: Time of recovery of spontaneous movement (SMT) in seconds was measured after administration of 100 mg/kg intraperitoneally in mice for the promotional effect on recovery from coma. To be noted: route intraperitoneal.
In assay [18] the test system is Mus musculus. Put plainly: Time of recovery of spontaneous movement (SMT) in seconds was measured after administration of 30 mg/kg intraperitoneally in mice for the promotional effect on recovery from coma. To be noted: route intraperitoneal.
Assay [19] has as its system Mus musculus. Put plainly: Time of recovery of righting reflux (RRT) in seconds was measured after administration of 30 mg/kg intraperitoneally in mice for the promotional effect on recovery from coma. To be noted: route intraperitoneal.
The test system of assay [20] is Mus musculus. The assay can be described thus: Time of recovery of righting reflux (RRT) in seconds was measured after administration of 40 mg/kg orally in mice for the promotional effect on recovery from coma. To be noted: route oral.
Assay [21] relates to Mus musculus. The assay can be described thus: Antihypoxic effect by the ratio of survival time (SVT) of test mice to that of control group at a dose of 40 mg/kg administered intraperitoneally. To be noted: route intraperitoneal.
In assay [22] the test system is Mus musculus. The assay can be described thus: Time of recovery of spontaneous movement (SMT) in seconds was measured after administration of 40 mg/kg orally in mice for the promotional effect on recovery from coma. Conditions: route oral.
The test system of assay [23] is Mus musculus. Put plainly: Time of recovery of righting reflux (RRT) in seconds was measured after administration of 10 mg/kg intraperitoneally in mice for the promotional effect on recovery from coma. Conditions: route intraperitoneal.
Assay [24] relates to Mus musculus. Put plainly: Antihypoxic effect by the ratio of survival time (SVT) of test mice to that of control group at a dose of 20 mg/kg administered intraperitoneally. Conditions: route intraperitoneal.
Assay [25] relates to Mus musculus. Put plainly: Compound was tested for the anesthetic effect and the sleeping time (ST) was recorded at a dose of 10 mg/kg administered intraperitoneally. Conditions: route intraperitoneal.
The test system of assay [26] is Mus musculus. Put plainly: Antihypoxic effect by the survival time (SVT) in mice at a dose of 30 mg/kg administered intraperitoneally. To be noted: route intraperitoneal.

For the compound `Cc1cc(C)c2c(c1O)C(N)C(C)(C)C2` (stereo not given), the SMT is 62.5 s in the assay with Mus musculus [1], 92.3 s in the assay on Mus musculus [2], 42 s in the assay with Mus musculus [3] and 105.8 s in the assay with Mus musculus [8]. Also, the RRT is listed as 66.2 s with Mus musculus [4], 37.2 s in the assay on Mus musculus [5], 54.8 s in the assay with Mus musculus [6] and 62.8 s in the assay with Mus musculus [7]. The SVT in the assay with Mus musculus [9] was 156.2%; in the assay on Mus musculus [11] it was 217%; in the assay with Mus musculus [12] it was 298.1%; with Mus musculus [13], 142.1%; in the assay with Mus musculus [14] it was 298.2%. Besides, the ST in the assay with Mus musculus [10] was 112 s and 82.1 s and 76.1 s.
`CCCC(C)C1(CC)C(=O)N=C([O-])NC1=O.[Na+]` (stereo not given) [PENTOBARBITAL SODIUM]: the SMT with Mus musculus [15] stood at 176.3 s; in the assay with Mus musculus [17], 283 s; in the assay on Mus musculus [18], 283 s; with Mus musculus [22], 283 s. For the same compound, the RRT was 494 s in the assay with Mus musculus [16], 494 s in the assay with Mus musculus [19], 494 s in the assay with Mus musculus [20] and 175.5 s in the assay with Mus musculus [23]. For the same compound, the SVT in the assay on Mus musculus [21] was 306.7% and 443.6%; with Mus musculus [11], 134.9%; in the assay with Mus musculus [24], 218.5%. The compound further registered an ST in the assay on Mus musculus [25] of 133 s.
In the assay on Mus musculus [3], `CCC(C)c1cc(C)c2c(c1O)C(NC(=O)CN1CCN(c3cccc(Cl)c3Cl)CC1)CC2` (stereo not given) gave an SMT of 117.4 s. The RRT with Mus musculus [5] stood at 98 s. For the same compound, the SVT is on record as 122.4% in the assay with Mus musculus [12] and 119.2% in the assay with Mus musculus [13].
Regarding `CCC(C)c1cc(C)c2c(c1O)C(NC(=O)CN1CCN(c3cc(Cl)cc(Cl)c3)CC1)CC2` (stereo not given), the SMT with Mus musculus [3] turned out to be 100.6 s. The compound further returned an RRT in the assay with Mus musculus [5] of 114 s. The figures for the SVT with Mus musculus [12] and in the assay with Mus musculus [13] were 139.4% and 113.2%, respectively.
As to `CCCCCCCCCCC(=O)NC1CCc2c(C)cc(C)c(O)c21` (stereo not given), in the assay with Mus musculus [26], the SVT came out at 94.5%.
`Cc1cc(C)c2c(c1O)C(NC(=O)CCl)CC2` (stereo not given): the SVT with Mus musculus [26] was found to be 116.4%.
`Cc1cc(C)c2c(c1O)C(NC(=O)CN1CCN(c3cccc(Cl)c3)CC1)C(C)(C)C2` (stereo not given): the SMT in the assay on Mus musculus [3] turned out to be 128.1 s. The compound also gave an RRT with Mus musculus [5] of 88.4 s. The SVT stood at 456.6% in the assay on Mus musculus [12] and 147.9% with Mus musculus [13].
